# According to PubChem BioAssay (NCI):
#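 Each compound was tested at five concentrations against cells in 96-well plates for 48 hours. Here, GI50 denotes the concentration required for 50% inhibition of growth. Definition used: TGI = concentration required for complete inhibition of growth.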
# Legend:
# Assay in all cases: DTP human tumour cell line panel, 48 h
# [1] = tested on: HS 578T breast
# [2] = tested on: EKVX NSCLC
# [3] = tested on: RPMI-8226 leukemia
# [4] = tested on: SNB-19 CNS
# [5] = tested on: RXF 393 renal
# [6] = tested on: U251 CNS
# [7] = tested on: PC-3 prostate
# [8] = tested on: OVCAR-5 ovarian
# [9] = tested on: HL-60(TB) leukemia
# [10] = tested on: SW-620 colon
# [11] = tested on: NCI-H23 lung
# [12] = tested on: MDA-MB-435
# [13] = tested on: HCC-2998 colon
# [14] = tested on: SF-268 CNS
# [15] = tested on: UACC-62 melanoma
# [16] = tested on: TK-10 renal
# [17] = tested on: K-562 leukemia
# [18] = tested on: SN12C renal
# [19] = tested on: MCF7 breast
# [20] = tested on: A498 renal
# [21] = tested on: NCI-H226 lung
# [22] = tested on: SK-MEL-2 melanoma
# [23] = tested on: T-47D breast
# [24] = tested on: HOP-92 NSCLC
# [25] = tested on: SF-539 CNS
# [26] = tested on: HCT-116 colon
# [27] = tested on: M14 melanoma
# [28] = tested on: MOLT-4 leukemia
# [29] = tested on: ACHN renal
# [30] = tested on: OVCAR-3 ovarian
# [31] = tested on: OVCAR-8 ovarian
# [32] = tested on: SR leukemia
# [33] = tested on: HOP-62 NSCLC
# [34] = tested on: 786-0 renal
# [35] = tested on: NCI/ADR-RES ovarian
# [36] = tested on: HT29 colon
# [37] = tested on: MALME-3M melanoma
# [38] = tested on: UACC-257 melanoma
# [39] = tested on: COLO 205 colon
# [40] = tested on: DU-145 prostate
# [41] = tested on: NCI-H522 lung
# [42] = tested on: CCRF-CEM leukemia
# [43] = tested on: SK-OV-3 ovarian
# [44] = tested on: MDA-MB-231 breast
# [45] = tested on: OVCAR-4 ovarian
# [46] = tested on: HCT-15 colon
# [47] = tested on: IGROV1 ovarian
# [48] = tested on: CAKI-1 renal
# [49] = tested on: UO-31 renal
# [50] = tested on: SK-MEL-28 melanoma
# [51] = tested on: KM12 colon
# [52] = tested on: A549 NSCLC
# [53] = tested on: NCI-H460 lung
# [54] = tested on: SNB-75 CNS
# [55] = tested on: SF-295 CNS
# [56] = tested on: LOX IMVI melanoma
# [57] = tested on: SK-MEL-5 melanoma
smiles,measurement,setting,value
C#C[C@]1(O)CC[C@H]2[C@@H]3CC=C4c5nc(Nc6ncccn6)sc5CC[C@]4(C)[C@H]3CC[C@@]21C,GI50,[1],1.25 µM
same,TGI,[1],4.14 µM
same,GI50,[2],2990 nM
same,TGI,[2],> 100 µM
same,GI50,[3],421 nM
same,TGI,[3],2110 nM
same,GI50,[4],2.77 µM
same,TGI,[4],> 100 µM
same,GI50,[5],451 nM
same,TGI,[5],1.69 µM
C=C1c2c(C)nn(-c3ccc(OC)cc3)c2N(C)C23C[C@@H]1C1(C)c4c(C)nn(-c5ccc(OC)cc5)c4N(C)C(C)(C[C@H]12)C3 (some centres not stated),GI50,[6],2670 nM
same,GI50,[7],1750 nM
same,TGI,[7],7.77 µM
same,GI50,[8],11.3 µM
same,TGI,[8],> 100 µM
same,GI50,[9],2540 nM
same,TGI,[9],> 100 µM
same,GI50,[10],3630 nM
same,TGI,[10],> 100 µM
same,GI50,[11],3.86 µM
same,TGI,[11],53.6 µM
same,GI50,[12],3.4 µM
same,TGI,[12],> 100 µM
same,GI50,[13],4.07 µM
same,TGI,[13],> 100 µM
same,GI50,[14],3.63 µM
same,TGI,[14],70.5 µM
same,GI50,[15],2860 nM
same,TGI,[15],> 100 µM
same,GI50,[16],3.63 µM
same,TGI,[16],11.8 µM
same,GI50,[17],3.6 µM
same,TGI,[17],> 100 µM
same,GI50,[18],3.65 µM
same,TGI,[18],> 100 µM
same,GI50,[19],2690 nM
same,TGI,[19],> 100 µM
same,GI50,[20],2470 nM
same,TGI,[20],16.4 µM
same,GI50,[21],4440 nM
same,TGI,[21],63 µM
same,GI50,[1],6.23 µM
same,TGI,[1],77.4 µM
same,GI50,[22],3.23 µM
same,TGI,[22],9.94 µM
same,GI50,[23],1810 nM
same,TGI,[23],> 100 µM
same,GI50,[24],1180 nM
same,TGI,[24],5.4 µM
same,GI50,[25],3.16 µM
same,TGI,[25],16.8 µM
same,GI50,[26],2820 nM
same,TGI,[26],12.8 µM
same,GI50,[27],3.88 µM
same,TGI,[27],> 100 µM
same,GI50,[28],2600 nM
same,TGI,[28],> 100 µM
same,GI50,[29],3.3 µM
same,TGI,[29],19 µM
same,GI50,[30],3.27 µM
same,TGI,[30],> 100 µM
same,GI50,[31],3.4 µM
same,TGI,[31],39.3 µM
same,GI50,[32],3160 nM
same,TGI,[32],> 100 µM
same,GI50,[33],4.28 µM
same,TGI,[33],18.9 µM
same,GI50,[34],4.23 µM
same,TGI,[34],19.7 µM
same,GI50,[35],4.04 µM
same,TGI,[35],> 100 µM
same,GI50,[4],4.34 µM
same,TGI,[4],55.8 µM
same,GI50,[36],3.24 µM
same,TGI,[36],> 100 µM
same,GI50,[37],3.24 µM
same,TGI,[37],> 100 µM
same,GI50,[38],2680 nM
same,TGI,[38],> 100 µM
same,GI50,[39],2200 nM
same,TGI,[39],5.11 µM
same,GI50,[40],4.38 µM
same,TGI,[40],> 100 µM
same,GI50,[5],1900 nM
same,TGI,[5],6.08 µM
same,GI50,[41],2770 nM
same,TGI,[41],11 µM
same,GI50,[42],3.41 µM
same,TGI,[42],> 100 µM
same,GI50,[43],3.39 µM
same,TGI,[43],16.2 µM
same,GI50,[44],3.11 µM
same,TGI,[44],15.7 µM
same,GI50,[45],3.56 µM
same,TGI,[45],54.6 µM
same,GI50,[46],3.11 µM
same,TGI,[46],> 100 µM
same,GI50,[47],7.54 µM
same,TGI,[47],> 100 µM
same,GI50,[48],2670 nM
same,TGI,[48],> 100 µM
same,GI50,[49],2610 nM
same,TGI,[49],> 100 µM
same,GI50,[50],5.86 µM
same,TGI,[50],> 100 µM
same,GI50,[51],3.75 µM
same,TGI,[51],> 100 µM
same,GI50,[52],2690 nM
same,TGI,[52],55.7 µM
COc1cc(C2NCCC(c3ccccc3)(c3ccccc3)N2)cc(OC)c1OC (configuration not stated),TGI,[6],> 100 µM
same,TGI,[53],> 100000 nM
same,TGI,[9],90.2 µM
same,TGI,[10],> 100 µM
same,TGI,[11],> 100 µM
same,TGI,[12],> 100 µM
same,TGI,[13],42.7 µM
same,TGI,[14],> 100 µM
same,TGI,[15],> 100 µM
same,TGI,[16],> 100 µM
same,TGI,[54],> 100 µM
same,TGI,[18],> 100 µM
same,TGI,[19],85.8 µM
same,TGI,[20],88.6 µM
same,TGI,[21],43.8 µM
same,TGI,[1],79.5 µM
same,TGI,[23],> 100 µM
same,TGI,[24],27.9 µM
same,TGI,[25],29.7 µM
same,TGI,[26],> 100 µM
same,TGI,[27],27.2 µM
same,TGI,[2],> 100 µM
same,TGI,[55],35.8 µM
same,TGI,[29],> 100 µM
same,TGI,[31],> 100 µM
same,TGI,[32],> 100 µM
same,TGI,[33],> 100 µM
same,TGI,[34],> 100 µM
same,TGI,[35],> 100 µM
same,TGI,[56],47.7 µM
same,TGI,[4],> 100 µM
same,TGI,[36],79.4 µM
same,TGI,[37],34 µM
same,TGI,[38],33.9 µM
same,TGI,[39],42.4 µM
same,TGI,[40],> 100 µM
same,TGI,[5],> 100 µM
same,TGI,[42],> 100 µM
same,TGI,[43],> 100 µM
same,TGI,[44],> 100 µM
same,TGI,[45],> 100 µM
same,TGI,[46],> 100 µM
same,TGI,[47],> 100 µM
same,TGI,[57],32.1 µM
same,TGI,[49],66.2 µM
same,TGI,[50],35.6 µM
same,TGI,[51],> 100 µM
same,TGI,[52],> 100 µM
C[C@H]1[C@H](C)CC[C@]2(C(=O)OCCCC[P+](c3ccccc3)(c3ccccc3)c3ccccc3)CC[C@]3(C)C(=CC[C@@H]4[C@@]5(C)CC[C@H](OC(=O)C(Cl)Cl)C(C)(C)[C@@H]5CC[C@]43C)[C@H]12,GI50,[53],283 nM
same,TGI,[53],975 nM
same,GI50,[10],349 nM
same,TGI,[10],1.29 µM
same,GI50,[21],354 nM
same,TGI,[21],1.82 µM
[2H]C([2H])([2H])Oc1cc(F)ccc1/C=C/C(=O)/C=C(/C=C/c1ccc(F)cc1OC([2H])([2H])[2H])OB(F)F,GI50,[9],1680 nM
same,TGI,[9],6.67 µM
same,GI50,[54],2390 nM
same,TGI,[54],> 100 µM
same,GI50,[1],5.67 µM
same,TGI,[1],> 100 µM
same,GI50,[22],2.99 µM
same,TGI,[22],> 100 µM
same,GI50,[32],2670 nM
same,TGI,[32],> 100 µM
same,GI50,[33],3.11 µM
same,TGI,[33],> 100 µM
same,GI50,[4],3.47 µM
same,TGI,[4],> 100 µM
